Columns and labels:
[1] = in vivo metabolite study (metabolic stability, radio-HPLC of brain homogenate and plasma); set-up: species or system female CD-1 mice; settings: for percentage of intact radiotracer in the brain / percentage of intact radiotracer in the plasma: female CD-1 mice, 30 min after the injection, radio-HPLC; for metabolic stability (comparison in words): in vivo, compared with another radiotracer
Experimental: The metabolic stability of [^18F]JHU94620-D4 was determined in accordance with the method described by Moldovan et al., J. Med. Chem. 2016, 59, 7840-7855. In the same way, the metabolic stability of JHU94620 and [^18F]JHU94620 was determined. The radio-HPLC chromatograms shown in FIGS. 3 and 4 were determined using a ReproSil-Pur C18 AQ column (250×4.6 mm, […]; eluting agent: 10-90-10% MeCN/20 mM NH4OAc; flow: 1 ml/min). JHU94620 has the following formula: […]
It is seen in FIG. 4 that in the in vivo metabolite study in female CD-1 mice the percentage of intact radiotracer [^18F]JHU94620-D4 in the brain was ~80% (radio-HPLC, extraction yield >97%) and in the plasma was ~15% (radio-HPLC, extraction yield >95%) 30 min after the injection.
In the in vivo metabolite study in female CD-1 mice in case of JHU94620 the percentage of intact radiotracer in the brain was 36% (radio-HPLC, n=3, extraction yield 93%) and in the plasma was 7% (radio-HPLC, n=3, extraction yield 94%) of the total activity 30 min after the injection.

[2] = background statement on prior-art compound; cited from earlier work
[3] = biological target: T1, CBR2 (Homo sapiens, UniProt P34972); assay: homolog competition assay, homogenate of CHO cells stably transfected with human CBR2 receptor, radioligand [^18F]JHU94620-D8; assay type: binding; set-up: expressed in transfected cells; host or cells: CHO cells (stably transfected), used as homogenate
T1 sequence (P34972 whole entry): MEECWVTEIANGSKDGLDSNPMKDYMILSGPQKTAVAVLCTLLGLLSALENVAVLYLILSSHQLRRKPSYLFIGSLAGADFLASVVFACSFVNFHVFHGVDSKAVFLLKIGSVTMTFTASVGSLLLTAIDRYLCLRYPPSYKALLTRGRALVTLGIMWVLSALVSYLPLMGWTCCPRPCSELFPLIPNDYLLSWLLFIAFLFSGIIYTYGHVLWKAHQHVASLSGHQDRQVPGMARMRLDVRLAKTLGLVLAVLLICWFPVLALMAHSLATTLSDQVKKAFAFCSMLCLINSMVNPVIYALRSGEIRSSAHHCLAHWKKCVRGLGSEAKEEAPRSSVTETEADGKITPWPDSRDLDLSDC
Experimental: The equilibrium dissociation constant KD was determined by means of a homolog competition assay. For that, a constant amount of binding protein (homogenate of CHO cells that were stably transfected with human CBR2 receptor; 2 Mio. cells/mL of the batch) was incubated with a constant amount of [^18F]JHU94620-D8 (0.101 nM in the batch) and an increasing concentration of JHU94620 (0.01 nM-10 µM in the batch) for 60 minutes at room temperature in binding buffer (50 mM TRIS-HCl, pH 7.4, with 5 mM of MgCl2, 1 mM EDTA, 1% BSA). Separation of receptor-bound and free radioligand was carried out by filtration over GF/B glass fiber filter incubated with 0.3% of polyethylene imine. Quantification of receptor-bound radioligand was carried out by measuring the filter-bound radioactivity in a gamma counter. Determination of the unspecific bonding of [^18F]JHU94620-D8 was carried out by co-incubation with CP55940 (10 µM in the batch), determination of the adsorption of the radioligand at the glass fiber filter was carried out by incubation without binding protein. […] CP55940 is a synthetic cannabinoid.

[4] = biological target: T1, CBR2; assay: CBR2 equilibrium dissociation constant Ki via Cheng-Prusoff equation; assay type: binding; settings: n = 3; read-out: CBR2 affinity Ki
Experimental: Using the Cheng-Prusoff equation
the CBR2 equilibrium dissociation constant Ki of JHU94620 was determined. Here, L designates the concentration of the free ligand. […] Replacing hydrogen atoms by […] shall not have any influence on the Ki value. This also applies to the replacement of hydrogen atoms by tritium ions.

Row | SMILES | percentage of intact radiotracer in the brain [1] | metabolic stability (prior art statement) [2] | percentage of intact radiotracer in the plasma [1] | metabolic stability (comparison in words) [1] | IC50 ([3]; competition of JHU94620 (0.01 nM-10 µM) with 0.101 nM [^18F]JHU94620-D8, 60 minutes, room temperature) | Ki [4] | Kd ([3]; calculated as KD = IC50 - radioligand (simplified Cheng-Prusoff), read-out: equilibrium dissociation constant KD)
1 | Cc1s/c(=N\C(=O)C2C(C)(C)C2(C)C)n(CCCC[18F])c1C [[^18F]JHU94620, N-(3-(4-([^18F]fluoro)butyl)-4,5-dimethylthiazole-2(3H)-ylidene)-2,2,3,3-tetramethylcyclopropane-1-carboxamide] | 38% | low metabolic stability |  |  |  |  | 
2 | [2H]C([2H])([18F])CCC([2H])([2H])n1c(C)c(C)s/c1=N\C(=O)C1C(C)(C)C1(C)C [[^18F]JHU94620-D4, N-(3-(4-([^18F]fluoro)butyl-1,1,4,4-d4)-4,5-dimethylthiazole-2(3H)-ylidene)-2,2,3,3-tetramethylcyclopropane-1-carboxamide] | ~ 80% |  | ~ 15% | substantially higher metabolic stability than [^18F]JHU94620 |  |  | 
3 | Cc1s/c(=N\C(=O)C2C(C)(C)C2(C)C)n(CCCCF)c1C [JHU94620] | 36% |  | 7% |  | 2.82 nM | 0.4 nM | 
4 | [2H]C([2H])([18F])C([2H])([2H])C([2H])([2H])C([2H])([2H])n1c(C)c(C)s/c1=N\C(=O)C1C(C)(C)C1(C)C [[^18F]JHU94620-D8, N-(3-(4-([^18F]fluoro)butyl-1,1,2,2,3,3,4,4-ds)-4,5-dimethylthiazole-2(3H)-ylidene)-2,2,3,3-tetramethylcyclopropane-1-carboxamide] |  |  |  | highly similar to that of [^18F]JHU94620-D4 |  |  | 2.72 nM
